Data as given in patent US20130324555A1, “Method of use of pharmaceutical formulations for the treatment of apicomplexan diseases in animals” (priority 2012, published 2013).
“Also recorded” adds a separate entry of the source. Like-named read-outs stand apart in the source and are kept apart here.

Experiments:
T. gondii tachyzoites = experiment: In vitro inhibition of T. gondii tachyzoites (RH-YFP fluorescence / [3H]-uracil incorporation); format: cell-based; details: for IC90 / IC50: Toxoplasma gondii; for activity against T. gondii tachyzoites, in words: only MIC50≦1 μM considered active
Protocol: Determination of the anti-apicomplexan activity of Compounds of Formula I may be determined by one skilled in the art. Parasite proliferation was monitored by using stably transfected type I RH-YFP parasites, which constitutively express Yellow Florescent Protein. Proliferation also was tested using a [^3H]-Uracil incorporation assay, as Uracil is incorporated into nucleic acids of T. gondii tachyzoites, but not mammalian cells, as they divide. Complimentary challenge assays ensured that the observed fluorescence data was due to parasite inhibition and not to quenched fluorescence. Pyrimethamine and sulfadiazine were used as positive controls, and DMSO at a concentration of 0.1% was used as the negative control. Because T. gondii is an obligate parasite, compounds that are toxic to host cells will appear to inhibit parasite growth. Therefore, all test compounds were simultaneously evaluated for efficacy and toxicity against human cells.
Test compounds were dissolved in DMSO to make a 10 mM solution, and subsequently diluted with IMDM-C to the concentrations used in bioassay. In the in vitro experiments DMSO concentration was not greater than 0.1% unless otherwise specified. RH-YFP parasites, which stably express Yellow Florescent Protein, were used. Tachyzoites were extracted from HFF cells by double passage through a 25-gauge needle, centrifuged for 15 minutes at 1500 RPM, and resuspended in IMDM-C. Confluent monolayers of HFF cells were infected with parasites in 96-well plates (Falcon 96 Optilux Flat-bottom) with 3,500 parasites in 100 uL per well. One hour after inoculation, test compounds and control media were added for a final volume of 200 uL per well. Parasite proliferation was assessed using [^3H]-Uracil incorporation or YFP Fluorescence assay.
Human Foreskin Fibroblast (HFF) cells were maintained in confluent monolayers in Iscoves's Modified Dulbecco's Medium supplemented with 10% fetal bovine serum, 1% GlutaMAX and 1% penicillin-streptomycin-fungizone (IMDM-C). T. gondii tachyzoites were cultivated in HFF monolayers. Parasites and cells were maintained at 33° C. or 37° C. and 5% CO2. The strains of parasite used in this study include RH, RH-YFP, and Prugnaud FLUC (Type 2 parasites stably transfected with luciferase), Me49 strain, and TgGoatUS4 isolate.
25 μL of 0.1 mCi/mL*^3H]-Uracil or [^3H]-Thymidine was added to each well 24 hours before reading plates. At harvesting, contents of the wells were transferred onto a 96-well UniFilter GF/C filter plates using a Filtermate 196 cell harvester (Packard). [^3H]-Uracil and [^3H]-Thymidine incorporation was measured using a Microplate Scintillation Luminescence Counter (Packard).
72 hours after initiation of the in vitro challenge assay, parasite proliferation was assessed by reading fluorescence of YFP parasites with a Synergy H4 Hybrid Reader (BioTek) and Gen5 1.10 software, using a bottom optics positions, excitation wavelength of 514 nm, and emission wavelength of 540 nm.

[1] = Uninfected mice dosed with compound alone (groups of the oocyst study); format: in vivo; details: for Day of Death: challenge None; for symptoms of uninfected mice dosed with compound alone: 100 or 25 mg/kg oral gavage
Protocol: Thus, compounds 14a and 14b were tested for efficacy in a mouse model of T. gondii oocyst infection. The oocyst form of the parasite is excreted by cats and is often the form by which people and other animals become infected. This oocyst infection in mice is very virulent, and fatal. Mice were infected by oral gavage with ME49 or TgGoatUS4 oocysts. Mice were treated with either a high dose (100 mg/kg) or low dose (25 mg/kg) of 14a or 14b 1 mL suspension via oral gavage, or were not treated. […] Treatment with 14a and 14b increased survival by 1 day (Table 6, FIGS. 8 and 9).
Five groups of B7 female mice weighing approximately 25 g were used. Group 1 received only 14a (100 mg/kg, 2.5 mg/mL, 1.0 mL) by oral gavage. Group 2 received only 14a (25 mg/kg, 0.5 mg/mL, 1.0 mL) by oral gavage. Group 3 received 14a (100 mg/kg, 2.5 mg/mL, 1.0 mL) and 100 ME49 oocysts by oral gavage. Group 4 received 14a (25 mg/kg, 0.5 mg/mL, 1.0 mL) and 100 ME49 oocysts by oral gavage. Group 5 received only 100 ME49 oocysts by oral gavage.
Five groups of B7 female mice weighing approximately 25 g were used. Group 1 received only 14b (100 mg/kg, 2.5 mg/mL, 1.0 mL) by oral gavage. Group 2 received only 14b (25 mg/kg, 0.5 mg/mL, 1.0 mL) by oral gavage. Group 3 received 14b (100 mg/kg, 2.5 mg/mL, 1.0 mL) and 100 TgGoatUS4 oocysts by oral gavage. Group 4 received 14a (25 mg/kg, 0.5 mg/mL, 1.0 mL) and 100 TgGoatUS4 oocysts by oral gavage. Group 5 received only 100 TgGoatUS4 oocysts by oral gavage.

[2] = In vivo oral toxicity in mice; details: for toxic effects when dosed orally: gavage daily for nine days, 100 mg/kg; for signs of toxicity in mice, in words: mouse, in vivo
Protocol: Selected compounds were evaluated for in vivo efficacy against T. gondii and P. falciparum. To asses toxic effects when administered orally, selected compounds were administered orally to mice daily for nine days at a dose of 100 mg/kg. At the end of the ten days, the animals were evaluated for toxic effects.
Todetermine whether 14a or 14b exerted toxic effects when dosed orally, each compound was administered by gavage to mice daily for nine days at a dose of 100 mg/kg.
HLA B07 transgenic mice were produced at Pharmexa-Epimmune (San Diego, Calif., USA) and bred at the University of Chicago. All studies were conducted with Institutional Animal Care and Use Committee at the USDA, the University of Chicago, and the University of Strathclyde.

[3] = serial dilutions, additional test concentrations, RH-YFP, read-out: IC90
[4] = serial dilutions, additional test concentrations, RH-YFP, read-out: IC50

| SMILES | IC90 (T. gondii tachyzoites; [3]) [nM] | activity against T. gondii tachyzoites, in words (T. gondii tachyzoites) | Day of Death ([1]; 25 mg/kg oral gavage) | Day of Death ([1]; 100 mg/kg oral gavage) | symptoms of uninfected mice dosed with compound alone [1] | toxic effects when dosed orally [2] | signs of toxicity in mice, in words [2] | IC50 (T. gondii tachyzoites) [nM] | IC90 (T. gondii tachyzoites) [nM] | IC50 (T. gondii tachyzoites; [4]) [nM] |
| --- | --- | --- | --- | --- | --- | --- | --- | --- | --- | --- |
| CC(C)(C)c1cccc(NC(=O)c2cc(Cl)ccc2O)c1 [Compound 3i, N-(3-tert-butylphenyl)-5-chloro-2-hydroxybenzamide] | 16 to 31 | active at low nanomolar concentrations | – | – | – | – | – | – | – | – |
| CN(CC(=O)NN)C(=O)Oc1ccc(Cl)cc1C(=O)Nc1ccc(C(F)(F)F)cc1C(F)(F)F.Cl [Compound 14b, 2-((2,4-bis(trifluoromethyl)phenyl)carbamoyl)-4-chlorophenyl (2-hydrazinyl-2-oxoethyl)(methyl)carbamate hydrochloride] | – | active at low nanomolar concentrations | None | None | remained asymptomatic | all mice were alive and appeared healthy | no signs of toxicity | 125 to 250 | 125 to 250 | – |
| O=C(Oc1ccc(Cl)cc1C(=O)Nc1ccc([N+](=O)[O-])cc1Cl)c1ccccc1 [Compound 7a, 4-chloro-2-((2-chloro-4-nitrophenyl)carbamoyl)phenyl benzoate] | 125 to 250 | active at low nanomolar concentrations; also recorded: apparent increase in potency over 4 | – | – | – | – | – | – | – | 61 to 125 |
| O=C(Nc1cc(C(F)(F)F)cc(C(F)(F)F)c1)c1cc(Cl)ccc1O [Compound 3j] | 125 to 250 | active at low nanomolar concentrations; also recorded: promising activity | – | – | – | – | – | – | – | 16 to 31 |
| CN(CC(=O)NN)C(=O)Oc1ccc(Cl)cc1C(=O)Nc1ccc([N+](=O)[O-])cc1Cl.Cl [Compound 14a, 4-chloro-2-((2-chloro-4-nitrophenyl)carbamoyl)phenyl (2-hydrazinyl-2-oxoethyl)(methyl)carbamate hydrochloride] | – | active at low nanomolar concentrations | None | None | remained asymptomatic | all mice were alive and appeared healthy | no signs of toxicity | 16 to 31 | 125 to 250 | – |
